Reference: patent publication US12053506B2, “Romo1-derived antimicrobial peptides and variants thereof” (priority 2019, dated 2024)
No end group written: not given here.

Tests used:
[1] = system: multidrug-resistant Pseudomonas aeruginosa; details: 4 h
Experimental: First, each of Pseudomonas aeruginosa (ATCC 27853) and Staphylococcus aureus (ATCC 29213) was cultured in 3% (w/v) TSB (Tryptic Soy Broth) liquid medium at 37° C. and 200 rpm for 4 hours, and then further cultured under the same conditions for 3 hours to a concentration of 5×10^6 CFU/ml. Strain solutions were prepared by diluting each of the further cultured strains with SP (sodium phosphate; 10 mM sodium phosphate, 1% TSB) buffer to a final concentration of 2×10^5 CFU/ml.
(§1) Then, each peptide at varying concentrations (0 μg/ml to 300 μg/ml) was dispensed into each well of a 96-well microplate, and 100 μl (1×10^5 CFU/ml) of each of the prepared strain solutions was added thereto, mixed therewith, and allowed to react with the peptide in an incubator at 37° C. for 1 hour.
In addition, 30 g/L of TS (tryptic soy) and 15 g/L of agar were dissolved in distilled water and sterilized, and then 25 ml of the solution was poured onto a 100 mm round plate and solidified at room temperature for one day or more, thereby preparing a TS agar plate. 10 μl of each reaction solution of the peptide and the strain was plated on the TS agar plate at a constant size, and incubated in an incubator at 37° C. for 18 hours, and then colony formation on the plate was checked.
(§2) Specifically, each type of bacteria was cultured in 3% (w/v) TSB (Tryptic Soy Broth) liquid medium at 37° C. and 200 rpm for 4 hours, and then further cultured under the same conditions for 3 hours to a concentration of 5×10^6 CFU/ml. Strain solutions were prepared by diluting each of the […] of 2×10^5 CFU/ml.
as §1, with “Then, the KU-5878” for “Then, each”
(§3) In addition, 10 μl of each reaction solution of the peptide and the strain was plated on the TS agar plate at a constant size, and incubated in an incubator at 37° C. for 18 hours, and then colony formation on the plate was checked.
Meanwhile, the multidrug-resistant Pseudomonas aeruginosa, multidrug-resistant Acinetobacter and multidrug-resistant Klebsiella in Table 2 below were bacteria isolated from patients at Korea University Anam Hospital. […] Then, these bacteria were used in the experiment.

[2] = system: Streptomyces sindenensis (ATCC 12392); assay: Minimum bactericidal concentration (MBC) assay; format: cell-based
Experimental: (§4) The minimum bactericidal concentration assay was the same as the method used in Example 1.
as §2
as §1, with “Then, the KU-5878” for “Then, each”
as §3, with “checked. The minimum bactericidal concentration was defined as the minimum concentration of the peptide at which no colony was formed, and the experimental results are shown in Table 2 below.” for “checked.”

[3] = system: Acinetobacter baumannii (ATCC 19606); assay: Minimum bactericidal concentration (MBC) assay; format: cell-based
Experimental: as §4, §2
as §1, with “Then, the KU-5878” for “Then, each”
as §3, with “checked. The minimum bactericidal concentration was defined as the minimum concentration of the peptide at which no colony was formed, and the experimental results are shown in Table 2 below.” for “checked.”

[4] = system: Human vascular endothelial cells (HUVECs); assay: Toxicity to human vascular endothelial cells (MTT); format: cell-based; details: 0 μg/ml to 300 μg/ml; FIG. 5
Experimental: PBS was used as a control.
The HUMEC medium was replaced with fresh medium, and KU-5878, melittin or magainin 2 were dispensed at various concentrations (0 μg/ml to 300 μg/ml). Then, each well was treated with 100 μl of MTT reagent and incubated at 37° C. for 2 hours. Then, the medium and the peptide were carefully removed so as not to separate the cells, and 100 μl of DMSO (dimethyl sulfoxide) was added to each well, and the absorbance at a wavelength of 570 nm was measured using a spectrophotometer. Relative cell viability was calculated as a percentage of the viability of untreated control cells.

[5] = system: Staphylococcus aureus, Pseudomonas aeruginosa, Klebsiella pneumoniae and Acinetobacter baumannii; assay: Survival rate of mice injected with gram-positive or gram-negative bacteria; format: in vivo, mice (C57BL/6); details: FIG. 3, bacteria only 0 to 20%
Source text: Following Example 2-2, in order to evaluate the antibacterial activity of KU-5878 peptide in vivo, Staphylococcus aureus as gram-positive bacteria, Pseudomonas aeruginosa, Klebsiella pneumoniae and Acinetobacter baumannii as gram-negative bacteria, and multidrug-resistant Pseudomonas aeruginosa, methicillin-resistant Staphylococcus aureus, multidrug-resistant Klebsiella pneumoniae and multidrug-resistant Acinetobacter baumannii as multidrug-resistant bacteria were selected, and the following experiment was performed.
The experimental method is as described in Example 2-2 above. For a positive group, each type of the bacteria was injected into mice, and after 24 hours, 30 mg/kg of imipenem, a carbapenem-based antibiotic, was injected intraperitoneally (IP), and then the same amount of imipenem was administered intraperitoneally a total of 4 times at 12-hour intervals. The survival rates of each control group and the experimental group were measured at 24-hour intervals.

CRPA = assay: MBC, evaluation of antibacterial activities of KU-5878 variants; format: cell-based; details: Tables 11-15, no unit printed

## KTMMQSGGTFGTFMAIGMGIR [KU-5878]
[1]
  MBC value (μg/ml) against multidrug-resistant Pseudomonas aeruginosa: 110 µg/mL
[2]
  MBC value (μg/ml), Streptomyces sindenensis: 95 µg/mL
[3]
  MBC value (μg/ml), Acinetobacter baumannii: 100 µg/mL
[4]
  toxicity to the HUVECs (relative cell viability, MTT): very low toxicity
[5]
  survival rate of the mice: 60%
CRPA
  MBC CRPA: 110 µg/mL
